The Ki is the dissociation constant of the complex between target and ligand, obtained from inhibition or displacement.

Where a name gives a salt, the structure may show the parent alone.

Here are results for 30 compounds from patent publication US20050059726A1, “Pyrrolidine-2-ones as factor xa inhibitors” (priority 2001, published 2005).

The target in the test is human Factor Xa (Homo sapiens, UniProt P00742). Kind of test: In vitro assay for inhibition of Factor Xa (2), fluorogenic assay. Type of test: biochemical. The note with it: substrate Rhodamine 110, bis-(CBZ-glycylglycyl-L-arginine amide 10 μM), Ki calculated from IC50. How it is done:
In Vitro Assay for Inhibition of Factor Xa (2)
All other compounds of the present invention were tested for their Factor Xa inhibitory activity as determined in vitro by their ability to inhibit human Factor Xa in a fluorogenic assay, using Rhodamine 110, bis-(CBZ-glycylglycyl-L-arginine amide as the fluorogenic substrate. Compounds were diluted from a 10 mM stock solution in dimethylsulfoxide at appropriate concentrations. Assay was performed at room temperature using buffer consisting of: 50 mM Tris-HCl, 150 mM NaCl, 5 mM CaCl2, pH 7.4. containing human Factor Xa (final conc. Of 0.0003U.ml−1). Compound and enzyme were preincubated for 15 min prior to addition of the substrate (final conc. of 10 μM). The reaction was stopped after 3 hrs with the addition of H-D-PHE-PRO-ARG-Chloromethylketone. […] To obtain IC50 values the data were analysed using ActivityBase® and XLfit®.
Calculation of Ki values:
Ki=IC50/(1+[Substrate]/Km)
The Ki value for the above assay can be obtained by dividing the IC50 value by 1.6.

Chain of human Factor Xa (P00742 235-488 limits assumed): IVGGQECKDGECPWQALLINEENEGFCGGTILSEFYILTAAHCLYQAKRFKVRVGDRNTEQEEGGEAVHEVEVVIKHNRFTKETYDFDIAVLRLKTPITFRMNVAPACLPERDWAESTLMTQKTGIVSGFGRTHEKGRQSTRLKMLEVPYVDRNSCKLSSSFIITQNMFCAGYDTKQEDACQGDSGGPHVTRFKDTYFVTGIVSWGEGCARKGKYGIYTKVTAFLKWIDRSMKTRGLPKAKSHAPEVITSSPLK
Chain of human Factor Xa (P00742 41-179 partner limits assumed): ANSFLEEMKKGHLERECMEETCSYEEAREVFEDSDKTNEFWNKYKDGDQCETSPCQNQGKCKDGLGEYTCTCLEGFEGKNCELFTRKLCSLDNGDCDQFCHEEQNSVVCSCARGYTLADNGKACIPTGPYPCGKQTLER

In the case of `O=C1[C@@H](NS(=O)(=O)c2ccc3cc(Cl)ccc3c2)CCN1c1ccc(-c2ncccn2)cc1F` [Example 81, 6-Chloro-N-[(3S)-1-(2-fluoro-4-pyrimidin-2-ylphenyl)-2-oxopyrrolidin-3-yl]naphthalene-2-sulfonamide], the Ki is < 1 µM.

With `O=C1[C@@H](NS(=O)(=O)c2ccc3cc(Cl)ccc3c2)CCN1c1ccc(-c2ncccc2Cl)cc1F` [Example 82, 6-Chloro-N-{(3S)-1-[4-(3-chloropyridin-2-yl)-2-fluorophenyl]-2-oxopyrrolidin-3-yl}naphthalene-2-sulfonamide], the Ki was < 0.01 µM.

Take `Cn1cnc(-c2ccc(N3CC[C@H](NS(=O)(=O)c4ccc5cc(Cl)ccc5c4)C3=O)c(F)c2)c1` [Example 84, 6Chloro-N-{(3S)-1-[2-fluoro-4-(1-methyl-1H-imidazol-4-yl)phenyl]-2-oxopyrrolidin-3-yl}naphthalene-2-sulfonamide Formate]: the Ki is < 0.02 µM.

For `CS(=O)(=O)c1ccccc1-c1ccc(N2CC[C@H](NS(=O)(=O)c3cnc(-c4ccc(Cl)s4)s3)C2=O)c(F)c1` [Example 86, 2-(5-Chlorothien-2-yl)-N-{(3S)-1-[3-fluoro-2′-(methylsulfonyl)-1,1′-biphenyl-4-yl]-2-oxopyrrolidin-3-yl}-1,3-thiazole-5-sulfonamide], the inhibition constant Ki is < 0.02 µM.

For `CS(=O)(=O)c1ccccc1-c1ccc(N2CC[C@H](NS(=O)(=O)c3cc4sc(Cl)cc4s3)C2=O)c(F)c1` [Example 87, 5-Chloro-N-{(3S)-1-[3-fluoro-2′-(methylsulfonyl)-1,1′-biphenyl-4-yl]-2-oxopyrrolidin-3-yl}thieno[3.2-b]thiophene-2-sulfonamide], the inhibition constant Ki is < 0.01 µM.

Consider `CS(=O)(=O)c1ccccc1-c1ccc(N2CC[C@H](NS(=O)(=O)c3c(Cl)sc4ccsc34)C2=O)c(F)c1` [Example 88, 2-Chloro-N-{(3S)-1-[3-fluoro-2′-(methylsulfonyl)-1,1′-biphenyl-4-yl]-2-oxopyrrolidin-3-yl}thieno[3.2-b]thiophene-3-sulfonamide], for which the Ki was < 0.02 µM.

For `O=C1[C@@H](NS(=O)(=O)c2ccc(-c3ccc(Cl)s3)s2)CCN1c1ccc(I)cc1F` [Example 92, 5′-Chloro-N-[(3S)-1-(2-fluoro-4-iodophenyl)-2-oxopyrrolidin-3-yl]-2,2′-bithiophene-5-sulfonamide], the Ki is < 0.01 µM.

With `O=C1[C@H](NS(=O)(=O)c2cc3ccc(Cl)cc3s2)CCN1c1ccc([N+](=O)[O-])cc1F` [Example 94, 6-Chloro-N-[(3R)-1-(2-fluoro-4-nitrophenyl)-2-oxopyrrolidinyl]-1-benzothiophene-2-sulfonamide], the Ki is < 0.2 µM.

As to `O=C1[C@@H](NS(=O)(=O)/C=C/c2ccc(Cl)s2)CCN1c1ccc([N+](=O)[O-])cc1F` [Example 95, (E)-2-(5-Chloro-2-thienyl)-N-[(3S)-1-(2-fluoro-4-nitrophenyl)-2-oxopyrrolidinyl]ethenesulfonamide], the Ki was < 0.02 µM.

With `O=C1[C@@H](NS(=O)(=O)c2ccc(-c3ccc(Cl)s3)s2)CCN1c1ccc([N+](=O)[O-])cc1F` [Example 96, 5′-Chloro-N-[(3S)-1-(2-fluoro-4-nitrophenyl)-2-oxopyrrolidin-3-yl]-2,2′-bithiophene-5-sulfonamide], the Ki was < 0.02 µM.

Consider `N#Cc1ccc(N2CC[C@H](NS(=O)(=O)c3cc4ccc(Cl)cc4s3)C2=O)c(F)c1` [Example 97, 6-Chloro-N-[(3S)-1-(4-cyano-2-fluorophenyl)-2-oxopyrrolidin-3-yl]-1-benzothiophene-2-sulfonamide], for which the Ki was < 0.01 µM.

In the case of `N#Cc1ccc(N2CC[C@H](NS(=O)(=O)/C=C/c3ccc(Cl)s3)C2=O)c(F)c1` [Example 98, (E)-2-(5-Chlorothien-2-yl)-N-[(3S)-1-(4-cyano-2-fluorophenyl)-2-oxopyrrolidin-3-yl]ethenesulfonamide], the Ki was < 0.2 µM.

Take `N#Cc1ccc(N2CC[C@H](NS(=O)(=O)CCc3ccc(Cl)s3)C2=O)c(F)c1` [Example 99, 2-(5-Chlorothien-2-yl)-N-[(3S)-1-(4-cyano-2-fluorophenyl)-2-oxopyrrolidin-3-yl]ethanesulfonamide]: the Ki was < 0.2 µM.

For `O=C1[C@@H](NS(=O)(=O)c2ccc3cc(Cl)ccc3c2)CCN1c1ccccc1F` [Example 101, 6-Chloro-N-[(3S)-1-(2-fluorophenyl)-2-oxopyrrolidin-3-yl]naphthalene-2-sulfonamide], the Ki is < 1 µM.

For the compound `O=C1[C@@H](NS(=O)(=O)c2ccc3cc(Cl)ccc3c2)CCN1c1ccc(N2CCOCC2)c(F)c1` [Example 103, 6-Chloro-N-{(3S)-1-[3-fluoro-4-(4-morpholinyl)phenyl]-2-oxopyrrolidinyl}-2-naphthalenesulfonamide], the Ki is < 1 µM.

Regarding `NC(=O)c1ccc(N2CC[C@H](NS(=O)(=O)/C=C/c3ccc(Cl)s3)C2=O)nc1` [Example 106, 6-[(3S)-3-({[(E)-2-(5-Chlorothien-2-yl)ethenyl]sulfonyl}amino)-2-oxopyrrolidin-1-yl]nicotinamide], the Ki is < 0.2 µM.

Turning to `CN(C)C(=O)c1ccc(N2CC[C@H](NS(=O)(=O)c3cc4ccc(Cl)cc4s3)C2=O)c(F)c1` [Example 109, 4-((3S)-3-{[(6-Chloro-1-benzothien-2-yl)sulfonyl]amino}-2-oxopyrrolidin-1-yl)-3-fluoro-N,N-dimethylbenzamide], the Ki was < 0.01 µM.

On to `C/C(=C\S(=O)(=O)N[C@H]1CCN(c2ccc(C(=O)N(C)C)cc2F)C1=O)c1ccc(Cl)s1` [Example 110, 4-[(3S)-3({[(1E)-2-(5-Chlorothien-2-yl)prop-1-enyl]sulfonyl}amino)-2-oxopyrrolidin-1-yl]-3-fluoro-N,N-dimethylbenzamide], for which the Ki is < 0.01 µM.

Turning to `CC(C)N(C)C(=O)c1ccc(N2CC[C@H](NS(=O)(=O)c3cc4ccc(Cl)cc4s3)C2=O)c(F)c1` [Example 111, 4-((3S)-3-{[(6-Chloro-1-benzothien-2-yl)sulfonyl]amino}-2-oxopyrrolidin-1-yl)-3-fluoro-N-isopropyl-N-methylbenzamide], the Ki was < 1 µM.

On to `CC(=O)c1ccc(N2CC[C@H](NS(=O)(=O)/C=C/c3ccc(Cl)s3)C2=O)nc1` [Example 113, (E)-N-[(3S)-1-(5-Acetylpyridin-2-yl)-2-oxopyrrolidin-3yl]-2-(5-chlorothien-2-yl)ethenesulfonamide], for which the Ki was < 0.2 µM.

As for `CC(=O)Nc1ccc(N2CC[C@H](NS(=O)(=O)c3cc4ccc(Cl)cc4s3)C2=O)c(F)c1` [Example 117, N-[4-((3S)-3-{[(6-Chloro-1-benzothien-2-yl)sulfonyl]amino}-2-oxopyrrolidinyl)-3-fluorophenyl]acetamide], the Ki was < 1 µM.

In the case of `CCC(=O)Nc1ccc(N2CC[C@H](NS(=O)(=O)c3cc4ccc(Cl)cc4s3)C2=O)c(F)c1` [Example 118, N-[4-((3S)-3-{[(6-Chloro-1-benzothien-2-yl)sulfonyl]amino}-2-oxopyrrolidinyl)-3-fluorophenyl]propanamide], the Ki is < 1 µM.

`CC(C)N(C=O)c1ccc(N2CC[C@H](NS(=O)(=O)/C=C/c3ccc(Cl)s3)C2=O)c(F)c1` [Example 120, (E)-2-(5-Chlorothien-2-yl)-N-((3S)-1-{2-fluoro-4-[formyl(isopropyl)amino]phenyl}-2-oxopyrrolidin-3-yl)ethenesulfonamide]: the Ki was < 0.01 µM.

On to `CC(C)N(C=O)c1ccc(N2CC[C@H](NS(=O)(=O)c3cc4ccc(Cl)cc4s3)C2=O)c(F)c1` [Example 121, 6-Chloro-N-((3S)-1-{2-fluoro-4-[formyl(isopropyl)amino]phenyl}-2-oxopyrrolidin-3-yl)-1-benzothiophene-2-sulfonamide], for which the Ki was < 0.02 µM.

`O=C1[C@@H](NS(=O)(=O)c2ccc3cc(Cl)ccc3c2)CCN1c1ccc(-n2ccnc2)cc1F` [Example 122, 6-Chloro-N-{(3S)-1-[2-fluoro-4-(1H-imidazol-1-yl)phenyl]-2-oxopyrrolidin-3-yl}naphthalene-2-sulfonamide]: the inhibitory constant (Ki) is < 0.01 µM.

With `Cc1cn(-c2ccc(N3CC[C@H](NS(=O)(=O)c4ccc5cc(Cl)ccc5c4)C3=O)c(F)c2)cn1` [Example 128, 6-Chloro-N-{(3S)-1-[2-fluoro-4-(4-methyl-1H-imidazol-1-yl)phenyl]-2-oxopyrrolidinyl}-2-naphthalenesulfonamide], the Ki is < 0.01 µM.

Turning to `O=C1[C@@H](NS(=O)(=O)c2ccc3cc(Cl)ccc3c2)CCN1c1ccc(-n2cccn2)cc1F` [Example 129, 6-Chloro-N-{(3S)-1-[2-fluoro-4-(1H-pyrazol-1-yl)phenyl]-2-oxopyrrolidinyl}-2-naphthalenesulfonamide], the Ki is < 0.01 µM.

Consider `O=C1[C@@H](NS(=O)(=O)CCc2ccc(Cl)s2)CCN1c1ccc(I)cn1` [Example 132, 2-(5-Chlorothien-2-yl)-N-[(3S)-1-(5-iodopyridin-2-yl)-2-oxopyrrolidin-3-yl]ethane-1-sulfonamide], for which the Ki is < 0.02 µM.

With `NC(=O)CN([C@H]1CCN(c2ccc(C(N)=O)cc2F)C1=O)S(=O)(=O)/C=C/c1ccc(Cl)s1` [Example 133, 4-[(3S)-3-((2-Amino-2-oxoethyl){[(E)-2-(5-chlorothien-2-yl)ethenyl]sulfonyl}amino)-2-oxopyrrolidin-1yl]-3-fluorobenzamide], the Ki is < 0.01 µM.

`CN(C)C(=O)c1ccc(N2CC[C@H](N(CC(N)=O)S(=O)(=O)/C=C/c3ccc(Cl)s3)C2=O)c(F)c1` [Example 134, 4-[(3S)-3-((2-Amino-2-oxoethyl){[(E)-2-(5-chlorothien-2-yl)ethenyl]sulfonyl}amino)-2-oxopyrrolidin-1-yl]-3-fluoro-N,N-dimethylbenzamide]: the Ki was < 0.01 µM.
